Patent publication US20180022780A1, “STABILIZATION ADRENOMEDULLIN DERIVATIVES AND USE THEREOF” (priority 2014, published 2018)
Bridge positions count the residues as written; N and C are the ends. Square brackets hold non-standard residues; d marks the D form. Peptide text beside a SMILES is read from it. Orn = NCCC[C@H](N)C(=O)O; Dab = NCC[C@H](N)C(=O)O

Target: T1, CLR fused to EYFP and RAMP2 fused to ECFP (Homo sapiens, UniProt O60895+Q16602)
T1 construct: EYFP; ECFP; expressed in transfected cells; host or cells: HEK-293 cells, transient co-transfection
Assay: cAMP assay (CRE luciferase reporter, HEK-293 cells transiently co-transfected with CLR and RAMP2)
Assay type: cell-based
Conditions: Table 2, cAMP assay; HEK-293, CLR/RAMP2, CRE luciferase, 3 h stimulation, normalized to [G^14]ADM(14-52)
Protocol: HEK-293 cells (human embryonic kidney cells) were cultured in Ham's F-12/DMEM (1/1; v/v) containing 15% FCS under humidified atmosphere at 37° C. and 5% CO2 in 75 cm^2 cell culture flasks.
Cells were cultured in 75 cm^2 flasks to 70-80% confluency. 45 μl Metafectene® Pro was diluted in 900 μl Ham's F-12/DMEM (1/1; v/v) and incubated for 20 min at room temperature. 9000 ng plasmid containing DNA of CLR fused to EYFP and 3000 ng plasmid containing DNA of RAMP2 fused to ECFP were dissolved in 900 μl Ham's F-12/DMEM (1/1; v/v). The plasmid solution was mixed with the Metafectene® Pro solution and incubated for 25 min at room temperature. Medium was removed from the cells and replaced by 6 ml Ham's F-12/DMEM (1/1; v/v) containing 15% FCS. After addition of transfection solution the cells were incubated for 3 h under humidified atmosphere at 37° C. and 5% CO2.
For the second transfection 45 μl Metafectene® Pro was diluted in 900 μl Ham's F-12/DMEM (1/1; v/v) and incubated for 20 min at room temperature. 12000 ng of pGL4.29[luc2P/CRE/Hygro] plasmid containing DNA for the luciferase reporter gene luc2P (with CRE promotor region) were dissolved in 900 μl Ham's F-12/DMEM (1/1; v/v). The plasmid solution was mixed with the Metafectene® Pro solution and incubated for 25 min at room temperature. Medium was removed from the cells and replaced by 6 ml Ham's F-12/DMEM (1/1; v/v) containing 15% FCS. After addition of transfection solution the cells were incubated under humidified atmosphere at 37° C. and 5% CO2 over night.
For the coating of 96-well-plates 50 μl of a Poly-D-Lysine solution (1 ml stock solution of Poly-D-Lysin-hydrobromid/10 ml DPBS) were pipetted in each well and incubated for 40 min. After removal of the Poly-D-Lysine each well was washed with 50 μl DPBS. Transiently transfected cells were detached from the cell culture flask by removal of the medium, twofold washing with 5 m1 DPBS and resuspending in 13 ml Ham's F-12/DMEM (1/1; v/v) containing 15% FCS. 90000 to 120000 cells in 150 μl Ham's F-12/DMEM (1/1; v/v) containing 15% FCS were seeded per well and the plates were incubated under humidified atmosphere at 37° C. and 5% CO2 over night.
For each ligand a serial dilution giving eight different concentrations was prepared using Ham's F-12/DMEM (1/1; v/v). Before stimulation the medium on the cells was replaced by 100 μl Ham's F-12/DMEM (1/1; v/v) and the plates were incubated for 1 h under humidified atmosphere at 37° C. and 5% CO2. For stimulation the medium was removed again and the cells were incubated for 3 h in 80 μl of ligand-solution under humidified atmosphere at 37° C. and 5% CO2. In addition 80 μl of a 5 μM forskolin solution (in Ham's F-12/DMEM (1/1; v/v)) was used as a positive control and 80 μl of Ham's F-12/DMEM (1/1; v/v) as a negative control. Each concentration and the controls were tested as triplicates.
After 3 h of stimulation, the solutions were removed and the cells were washed with 50 μl of Ham's F-12/DMEM (1/1; v/v) per well. After 10 min incubation in 30 μl of Ham's F-12/DMEM (1/1; v/v) at room temperature, 30 μl of luciferase-solution (ONE-Glo™ Luciferase Assay System) was added and the luminescence was directly measured using an Infinite M200 (Tecan).
Data analysis of the luminescence measurement was carried out with GraphPad Prism 5. Therefore the measured luminescence values of each plate were first corrected on the base of the respective average of forskolin stimulation. Afterwards they were normalized to [G^14]ADM(14-52) which was used as standard peptide in every assay. After correction and normalization data was analysed using non-linear regression giving dose-response curves for each tested ligand.

T1 sequence (Q16602 23-461): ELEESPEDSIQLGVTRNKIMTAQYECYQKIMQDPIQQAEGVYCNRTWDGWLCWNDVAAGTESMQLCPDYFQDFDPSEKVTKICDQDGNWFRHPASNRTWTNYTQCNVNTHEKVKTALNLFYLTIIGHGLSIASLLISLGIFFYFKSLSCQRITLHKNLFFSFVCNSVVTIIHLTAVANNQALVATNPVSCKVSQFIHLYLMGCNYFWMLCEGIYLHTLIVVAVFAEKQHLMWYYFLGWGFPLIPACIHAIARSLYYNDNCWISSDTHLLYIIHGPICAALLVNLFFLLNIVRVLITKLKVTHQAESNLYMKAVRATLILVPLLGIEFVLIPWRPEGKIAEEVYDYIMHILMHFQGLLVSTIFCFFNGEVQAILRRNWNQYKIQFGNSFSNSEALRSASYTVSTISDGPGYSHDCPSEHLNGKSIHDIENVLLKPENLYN
T1 sequence (O60895 43-175): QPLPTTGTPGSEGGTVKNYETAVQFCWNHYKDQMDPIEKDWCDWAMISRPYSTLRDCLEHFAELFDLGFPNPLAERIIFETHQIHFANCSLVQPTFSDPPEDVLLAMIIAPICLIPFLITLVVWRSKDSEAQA

EC50	SMILES
41 nM	CC[C@H](C)[C@H](NC(=O)[C@H](CCC(N)=O)NC(=O)[C@H](Cc1c[nH]cn1)NC(=O)[C@H](C)NC(=O)[C@H](CC(C)C)NC(=O)[C@H](CCCCN)NC(=O)[C@H](CCC(N)=O)NC(=O)[C@@H](NC(=O)[C@@H](NC(=O)[C@@H]1CCNC(=O)CC[C@H](NC(=O)CNC(=O)CN)C(=O)N[C@@H](CCCNC(=N)N)C(=O)N[C@@H](Cc2ccccc2)C(=O)NCC(=O)N[C@@H]([C@@H](C)O)C(=O)N1)[C@@H](C)O)C(C)C)C(=O)N[C@@H](Cc1ccc(O)cc1)C(=O)N[C@@H](CCC(N)=O)C(=O)N[C@@H](Cc1ccccc1)C(=O)N[C@H](C(=O)N[C@@H](CC(=O)O)C(=O)N[C@@H](CCCCN)C(=O)N[C@@H](CC(=O)O)C(=O)N[C@@H](CCCCN)C(=O)N[C@@H](CC(=O)O)C(=O)N[C@@H](CC(N)=O)C(=O)N[C@H](C(=O)N[C@@H](C)C(=O)N1CCC[C@H]1C(=O)N[C@@H](CCCNC(=N)N)C(=O)N[C@@H](CO)C(=O)N[C@@H](CCCCN)C(=O)N[C@H](C(=O)N[C@@H](CO)C(=O)N1CCC[C@H]1C(=O)N[C@@H](CCC(N)=O)C(=O)NCC(=O)N[C@@H](Cc1ccc(O)cc1)C(N)=O)[C@@H](C)CC)C(C)C)[C@@H](C)O [Example 10, ((2S,5S,11S,14S,21S)-21-(2-(2-aminoacetamido)acetamido)-5-benzyl-2-(3-guanidinopropyl)-11-((R)-1-hydroxyethyl)-3,6,9,12,18,22-hexaoxo-1,4,7,10,13,17-hexaazacyclodocosane-14-carbonyl)-L-threonyl-ADM(22-52)] (H-GGERFGT[Dab]TVQKLAHQIYQFTDKDKDNVAPRSKISPQGY-NH2; lactam 3-8)
31 nM	CC[C@H](C)[C@H](NC(=O)[C@H](CCC(N)=O)NC(=O)[C@H](Cc1c[nH]cn1)NC(=O)[C@H](C)NC(=O)[C@H](CC(C)C)NC(=O)[C@H](CCCCN)NC(=O)[C@H](CCC(N)=O)NC(=O)[C@@H](NC(=O)[C@@H](NC(=O)[C@@H]1CCCCNC(=O)CC[C@H](NC(=O)CNC(=O)CN)C(=O)N[C@@H](CCCNC(=N)N)C(=O)N[C@@H](Cc2ccccc2)C(=O)NCC(=O)N[C@@H]([C@@H](C)O)C(=O)N1)[C@@H](C)O)C(C)C)C(=O)N[C@@H](Cc1ccc(O)cc1)C(=O)N[C@@H](CCC(N)=O)C(=O)N[C@@H](Cc1ccccc1)C(=O)N[C@H](C(=O)N[C@@H](CC(=O)O)C(=O)N[C@@H](CCCCN)C(=O)N[C@@H](CC(=O)O)C(=O)N[C@@H](CCCCN)C(=O)N[C@@H](CC(=O)O)C(=O)N[C@@H](CC(N)=O)C(=O)N[C@H](C(=O)N[C@@H](C)C(=O)N1CCC[C@H]1C(=O)N[C@@H](CCCNC(=N)N)C(=O)N[C@@H](CO)C(=O)N[C@@H](CCCCN)C(=O)N[C@H](C(=O)N[C@@H](CO)C(=O)N1CCC[C@H]1C(=O)N[C@@H](CCC(N)=O)C(=O)NCC(=O)N[C@@H](Cc1ccc(O)cc1)C(N)=O)[C@@H](C)CC)C(C)C)[C@@H](C)O [Example 1, ((2S,5S,11S,14S,23S)-23-(2-(2-aminoacetamido)acetamido)-5-benzyl-2-(3-guanidinopropyl)-11-((R)-1-hydroxyethyl)-3,6,9,12,20,24-hexaoxo-1,4,7,10,13,19-hexaazacyclotetracosane-14-carbonyl)-L-threonyl-ADM(22-52)] (H-GGERFGTKTVQKLAHQIYQFTDKDKDNVAPRSKISPQGY-NH2; lactam 3-8)
21 nM	CC[C@H](C)[C@H](NC(=O)[C@H](CCC(N)=O)NC(=O)[C@H](Cc1c[nH]cn1)NC(=O)[C@H](C)NC(=O)[C@H](CC(C)C)NC(=O)[C@H](CCCCN)NC(=O)[C@H](CCC(N)=O)NC(=O)[C@@H](NC(=O)[C@@H](NC(=O)[C@@H]1CCNC(=O)C[C@H](NC(=O)CNC(=O)CN)C(=O)N[C@@H](CCCNC(=N)N)C(=O)N[C@@H](Cc2ccccc2)C(=O)NCC(=O)N[C@@H]([C@@H](C)O)C(=O)N1)[C@@H](C)O)C(C)C)C(=O)N[C@@H](Cc1ccc(O)cc1)C(=O)N[C@@H](CCC(N)=O)C(=O)N[C@@H](Cc1ccccc1)C(=O)N[C@H](C(=O)N[C@@H](CC(=O)O)C(=O)N[C@@H](CCCCN)C(=O)N[C@@H](CC(=O)O)C(=O)N[C@@H](CCCCN)C(=O)N[C@@H](CC(=O)O)C(=O)N[C@@H](CC(N)=O)C(=O)N[C@H](C(=O)N[C@@H](C)C(=O)N1CCC[C@H]1C(=O)N[C@@H](CCCNC(=N)N)C(=O)N[C@@H](CO)C(=O)N[C@@H](CCCCN)C(=O)N[C@H](C(=O)N[C@@H](CO)C(=O)N1CCC[C@H]1C(=O)N[C@@H](CCC(N)=O)C(=O)NCC(=O)N[C@@H](Cc1ccc(O)cc1)C(N)=O)[C@@H](C)CC)C(C)C)[C@@H](C)O [Example 4, ((2S,5S,11S,14S,20S)-20-(2-(2-aminoacetamido)acetamido)-5-benzyl-2-(3-guanidinopropyl)-11-((R)-1-hydroxyethyl)-3,6,9,12,18,21-hexaoxo-1,4,7,10,13,17-hexaazacyclohenicosane-14-carbonyl)-L-threonyl-ADM(22-52)] (H-GGDRFGT[Dab]TVQKLAHQIYQFTDKDKDNVAPRSKISPQGY-NH2; lactam 3-8)
9.1 nM	CC[C@H](C)[C@H](NC(=O)[C@H](CCC(N)=O)NC(=O)[C@H](Cc1c[nH]cn1)NC(=O)[C@H](C)NC(=O)[C@H](CC(C)C)NC(=O)[C@H](CCCCN)NC(=O)[C@H](CCC(N)=O)NC(=O)[C@@H](NC(=O)[C@@H](NC(=O)[C@@H]1CCC(=O)NCCC[C@H](NC(=O)CNC(=O)CN)C(=O)N[C@@H](CCCNC(=N)N)C(=O)N[C@@H](Cc2ccccc2)C(=O)NCC(=O)N[C@@H]([C@@H](C)O)C(=O)N1)[C@@H](C)O)C(C)C)C(=O)N[C@@H](Cc1ccc(O)cc1)C(=O)N[C@@H](CCC(N)=O)C(=O)N[C@@H](Cc1ccccc1)C(=O)N[C@H](C(=O)N[C@@H](CC(=O)O)C(=O)N[C@@H](CCCCN)C(=O)N[C@@H](CC(=O)O)C(=O)N[C@@H](CCCCN)C(=O)N[C@@H](CC(=O)O)C(=O)N[C@@H](CC(N)=O)C(=O)N[C@H](C(=O)N[C@@H](C)C(=O)N1CCC[C@H]1C(=O)N[C@@H](CCCNC(=N)N)C(=O)N[C@@H](CO)C(=O)N[C@@H](CCCCN)C(=O)N[C@H](C(=O)N[C@@H](CO)C(=O)N1CCC[C@H]1C(=O)N[C@@H](CCC(N)=O)C(=O)NCC(=O)N[C@@H](Cc1ccc(O)cc1)C(N)=O)[C@@H](C)CC)C(C)C)[C@@H](C)O [Example 20, ((2S,5S,11S,14S,22S)-22-(2-(2-aminoacetamido)acetamido)-5-benzyl-2-(3-guanidinopropyl)-11-((R)-1-hydroxyethyl)-3,6,9,12,17,23-hexaoxo-1,4,7,10,13,18-hexaazacyclotricosane-14-carbonyl)-L-threonyl-ADM(22-52)] (H-GG[Orn]RFGTETVQKLAHQIYQFTDKDKDNVAPRSKISPQGY-NH2; lactam 3-8)
